Where two headings read alike, the source gives them in different places. Bridge positions count the residues as written; N and C are the ends. Square brackets hold non-standard residues; d marks the D form. Peptide text beside a SMILES is read from it. * marks the point of attachment. PEG24 = NCCOCCOCCOCCOCCOCCOCCOCCOCCOCCOCCOCCOCCOCCOCCOCCOCCOCCOCCOCCOCCOCCOCCOCCOCCC(=O)O; Malonyl(C11H23,(CH2)10COOH) = CCCCCCCCCCCC(CCCCCCCCCCC(=O)O)(C(=O)O)C(=O)*; PEG12 = NCCOCCOCCOCCOCCOCCOCCOCCOCCOCCOCCOCCOCCC(=O)O; pGlu = O=C1CC[C@@H](C(=O)O)N1; PEG4 = NCCOCCOCCOCCOCCC(=O)O; Nle = CCCC[C@H](N)C(=O)O

Data set [1] is described as follows: Surrogate activity-based plasma stability assay. In kind it is in vitro ADME. Particulars: rat. An excerpt: Surrogate Activity-Based Plasma Stability Assay:
2) Calculate slope of value above and […]

The next data set has as its target T1, hAPJ (Homo sapiens, UniProt P35414).
T1 sequence (P35414 1-380): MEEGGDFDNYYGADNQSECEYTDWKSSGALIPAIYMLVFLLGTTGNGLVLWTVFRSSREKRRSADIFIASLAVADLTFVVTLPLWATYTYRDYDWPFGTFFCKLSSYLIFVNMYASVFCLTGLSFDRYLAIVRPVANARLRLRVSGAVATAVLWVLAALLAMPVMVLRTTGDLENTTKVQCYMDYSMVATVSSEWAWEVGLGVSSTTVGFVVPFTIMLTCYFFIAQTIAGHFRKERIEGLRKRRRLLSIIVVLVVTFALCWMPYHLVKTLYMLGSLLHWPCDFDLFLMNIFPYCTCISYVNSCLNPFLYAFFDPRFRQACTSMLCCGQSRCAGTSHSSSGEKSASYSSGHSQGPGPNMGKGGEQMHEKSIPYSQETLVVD
The data set is described as follows: hAPJ Calcium flux assay. It counts as cell-based. As for the experimental part: Chem-5 APJ stable cells (Millipore # HTS068C) were plated in 384-well format with 10,000 cells/well in 25 ul growth media, then grown 24 hours in a 37° C. tissue culture incubator. One hour before the assay, 25 ul/well FLIPR Calcium 4 dye (Molecular Devices R8142) with 2.5 mM probenecid was added, and cells were incubated one hour in a 37° C. tissue culture incubator. Bioconjugates were solubilized in HBSS, HEPES & 0.1% BSA buffer, and serially-diluted 10-fold, from 50 uM to 5 pM, in triplicate. FLIPR Tetra was used to add bioconjugates to the cells with dye (1:5, for final bioconjugate concentrations ranging from 10 uM to 1 pM). FLIPR dye inside the cells emitted fluorescence after binding to calcium, while fluorescence from outside the cells was masked. Fluorescence was measured using 470-495 excitation and 515-575 emission wavelengths on the FLIPR Tetra. Readings were done for 3 minutes total, beginning 10 seconds before the bioconjugate addition. Maximum-minimum values were calculated and plotted for each bioconjugate concentration, and GraphPad prism software was used to calculate EC50 values at the curve inflection points, for calcium flux stimulation by bioconjugates.
A general note: Calcium flux is commonly read through the fluorescence of an indicator in the cells.

Data set [2] in a line: In vivo pharmacokinetic assessment via SC dosing. The following applies: mouse, C57/B6 mice, subcutaneous dosing, plasma, read-out: t½ (converted). On the procedure:
Protocols and Data for the In Vivo Pharmacokinetic Assessment Via SC Dosing. Formulation, Dosing and Sample Acquisition: […]
Example 1 and example 4 were dissolved to 0.1 mg/ml concentration in 30% (w/v) PEG300 and 5% (w/v) dextrose in PBS. C57/B6 mice (˜20 weeks of age) were dosed with dissolved compound by subcutaneous (SC) injection into the flank (n=4 per compound). Injection volume was 10 ml/kg. Blood samples were withdrawn from the saphenous vein at 3 and 6 hours post-dose, as well as at 1, 2, 4, 7 and 10 days post dose. Blood samples were immediately centrifuged at 4000×g for 10 min. Plasma supernatant (10 μL) was transferred to a 96-well plate and frozen at −80 C until analysis.
C57/B6J mice (˜22 weeks of age) were dosed with dissolved compound by SC injection (n=4). Blood samples were withdrawn from the tail vein at 15, 30, 60 and 120 minutes post injection. These were immediately centrifuged and then plasma supernatant was transferred to a 96-well plate and frozen at −80 C until analysis.
Preparation of Samples for Bioanalysis:
A pre-weighed sample of each compound (1-3 mg) was obtained and dissolved to 1 mg/ml in DMSO. These were diluted serially in mouse plasma (BioReclamation) to final concentrations of 10,000, 5,000, 1,000, 500, 100, 50, 10, 5, and 1 ng/ml to make standard curve for analysis.
Plasma samples from PK studies were thawed and diluted to 25 μL total volume by addition of mouse plasma.
25 μL aliquots of each sample and standard curve sample were arranged on a 96-well plate.
150 μL acetonitrile containing 100 ng/ml glyburide as internal standard was added to each sample and the samples vortexed for 30 seconds. Samples were then centrifuged at 4000×g for 10 minutes. 125 μL supernatant was then transferred to a fresh 96-well plate. 50 μL of water was added and mixed by vortexing for 30 seconds.
LC/MS Bioanalysis (Agilent 1290):
Samples (10 μL) were transferred to an HPLC using a CTC PAL autosampler. The LC column was ACE C18 30×2.1 mm, 3.0 μm bead. […]

Where [3] appears, read: Chem-5 APJ stable cells, FLIPR calcium flux, read-out: hAPJ Ca^2+ Flux EC50.

On to `CCCCCCCCCCCC(CCCCCCCCCCC(=O)O)(C(=O)O)C(=O)NCCOCCOCCOCCOCCOCCOCCOCCOCCOCCOCCOCCOCCOCCOCCOCCOCCOCCOCCOCCOCCOCCOCCOCCOCCC(=O)N[C@@H](CCC(N)=O)C(=O)N[C@@H](CCCNC(=N)N)C(=O)N1CCC[C@H]1C(=O)N[C@@H](CCCNC(=N)N)C(=O)N[C@@H](CC(C)C)C(=O)N[C@H]1CSSC[C@@H](C(=O)N[C@@H](Cc2ccccc2)C(=O)O)NC(=O)[C@H](CCCC)NC(=O)[C@@H]2CCCN2C(=O)CNC(=O)[C@H](CCCCN)NC(=O)[C@H](Cc2cnc[nH]2)NC1=O` (stereo partly drawn) [Example 1, Fatty Acid-Linker#1Q-R-P-R-L-C*-H-K-G-P-(Nle)-C*-F (C6-C12 Disulfide Bridge)] ({Malonyl(C11H23,(CH2)10COOH)-PEG24}-QRPRLCHKGP[Nle]CF-OH; disulfide 6-12), for which the values for the half-life in data set [1] and in data set [2] (1 mg/kg) were > 16.7 h and 43 h, respectively. The EC50 at hAPJ (setting [3]) worked out at 111 nM.

In the case of `CCCCCCCCCCCC(CCCCCCCCCCC(=O)O)(C(=O)O)C(=O)NCCOCCOCCOCCOCCOCCOCCOCCOCCOCCOCCOCCOCCC(=O)N[C@@H](CCC(N)=O)C(=O)N[C@@H](CCCNC(=N)N)C(=O)N1CCC[C@H]1C(=O)N[C@@H](CCCNC(=N)N)C(=O)N[C@@H](CC(C)C)C(=O)N[C@H]1CSSC[C@@H](C(=O)N[C@@H](Cc2ccccc2)C(=O)O)NC(=O)[C@H](CCCC)NC(=O)[C@@H]2CCCN2C(=O)CNC(=O)[C@H](CCCCN)NC(=O)[C@H](Cc2cnc[nH]2)NC1=O` (some centres unmarked) [Example 2] ({Malonyl(C11H23,(CH2)10COOH)-PEG12}-QRPRLCHKGP[Nle]CF-OH; disulfide 6-12), in data set [1], the half-life is > 16.7 h. Further, on hAPJ (setting [3]), the half-maximal effective concentration (EC50) was found to be 84.8 nM.

`CCCC[C@@H]1NC(=O)[C@@H]2CCCN2C(=O)CNC(=O)[C@H](CCCCN)NC(=O)[C@H](Cc2cnc[nH]2)NC(=O)[C@@H](NC(=O)[C@H](CC(C)C)NC(=O)[C@H](CCCNC(=N)N)NC(=O)[C@@H]2CCCN2C(=O)[C@H](CCCNC(=N)N)NC(=O)[C@@H]2CCC(=O)N2)CSSC[C@@H](C(=O)N[C@@H](Cc2ccccc2)C(=O)O)NC1=O` [pE-R-P-R-L-C*-H-K-G-P-Nle-C*-F-OH, reference compound] ([pGlu]RPRLCHKGP[Nle]CF-OH; disulfide 6-12): the values for the half-life in data set [1] and in data set [2] were 2.2 h and 0.52 h, respectively. Besides, the EC50 on hAPJ was determined as 1 nM.

Turning to `CCCCCCCCCCCC(CCCCCCCCCCC(=O)O)(C(=O)O)C(=O)NCCOCCOCCOCCOCCC(=O)N[C@@H](CCC(N)=O)C(=O)N[C@@H](CCCNC(=N)N)C(=O)N1CCC[C@H]1C(=O)N[C@@H](CCCNC(=N)N)C(=O)N[C@@H](CC(C)C)C(=O)N[C@H]1CSSC[C@@H](C(=O)N[C@@H](Cc2ccccc2)C(=O)O)NC(=O)[C@H](CCCC)NC(=O)[C@@H]2CCCN2C(=O)CNC(=O)[C@H](CCCCN)NC(=O)[C@H](Cc2cnc[nH]2)NC1=O` (some centres unmarked) [Example 4] ({Malonyl(C11H23,(CH2)10COOH)-PEG4}-QRPRLCHKGP[Nle]CF-OH; disulfide 6-12), the half-life in data set [1] is > 16.7 h; in data set [2] (1 mg/kg), 23 h. For the same compound, the concentration giving a half-maximal response (EC50) at hAPJ (setting [3]) worked out at 158 nM.

The term EC50 denotes the concentration giving half of the maximal effect.

The record behind these values is US9931372B2, “Synthetic apelin fatty acid conjugates with improved half-life” (Novartis AG, priority 2015, dated 2018).
